Laboratory results reported in the NIST ThermoML archive (doi:10.1016/j.tca.2012.10.004).

Columns and labels:
[1] = xn = mol fraction of the nth substance listed; conditions: 101 kPa, Liquid, Pycnometric method
[2] = relative permittivity at zero frequency (dimensionless); xn = mol fraction of the nth substance listed; conditions: 101 kPa, Liquid, Coaxial cylinder capacitor

CN(CCO)CCO [N-methyldiethanolamine] + O=S1(=O)CCCC1
Conditions	mass density, [1] [kg/m3]	relative permittivity at zero frequency, [2]
293.15 K, x1 = 0.1001	1241.9	40.8
293.15 K, x1 = 0.2012	1214.9	38.3
293.15 K, x1 = 0.2999	1188	35.5
293.15 K, x1 = 0.4003	1163.1	33.5
293.15 K, x1 = 0.5005	1139.8	31.7
293.15 K, x1 = 0.6	1118.1	30.2
293.15 K, x1 = 0.7002	1097.7	28.4
293.15 K, x1 = 0.8011	1078.9	26.6
293.15 K, x1 = 0.8998	1059.9	24.6
293.15 K, x1 = 1	1041.6	22.9
298.15 K, x1 = 0.1001	1237.6	40.1
298.15 K, x1 = 0.2012	1210.5	37.6
298.15 K, x1 = 0.2999	1183.9	34.8
298.15 K, x1 = 0.4003	1159.1	32.8
298.15 K, x1 = 0.5005	1135.7	31
298.15 K, x1 = 0.6	1114.1	29.5
298.15 K, x1 = 0.7002	1093.6	27.7
298.15 K, x1 = 0.8011	1074.9	26
298.15 K, x1 = 0.8998	1055.9	24.1
298.15 K, x1 = 1	1037.9	22.4
303.15 K, x1 = 0.1001	1233.1	39.4
303.15 K, x1 = 0.2012	1205.9	36.9
303.15 K, x1 = 0.2999	1179.5	34.1
303.15 K, x1 = 0.4003	1154.8	32.1
303.15 K, x1 = 0.5005	1131.5	30.3
303.15 K, x1 = 0.6	1110	28.8
303.15 K, x1 = 0.7002	1089.6	27
303.15 K, x1 = 0.8011	1070.9	25.3
303.15 K, x1 = 0.8998	1051.9	23.6
303.15 K, x1 = 1	1034.1	21.8
308.15 K, x1 = 0.1001	1228.6	38.7
308.15 K, x1 = 0.2012	1201.5	36.1
308.15 K, x1 = 0.2999	1175.1	33.4
308.15 K, x1 = 0.4003	1150.4	31.3
308.15 K, x1 = 0.5005	1127.2	29.5
308.15 K, x1 = 0.6	1105.8	28.1
308.15 K, x1 = 0.7002	1085.6	26.3
308.15 K, x1 = 0.8011	1066.8	24.6
308.15 K, x1 = 0.8998	1048	22.9
308.15 K, x1 = 1	1030.3	21.3
313.15 K, x1 = 0.1001	1224.1	38
313.15 K, x1 = 0.2012	1197	35.5
313.15 K, x1 = 0.2999	1170.7	32.7
313.15 K, x1 = 0.4003	1146.2	30.6
313.15 K, x1 = 0.5005	1123.1	28.7
313.15 K, x1 = 0.6	1101.6	27.4
313.15 K, x1 = 0.7002	1081.5	25.6
313.15 K, x1 = 0.8011	1062.8	24
313.15 K, x1 = 0.8998	1044	22.2
313.15 K, x1 = 1	1026.5	20.8
318.15 K, x1 = 0.1001	1219.6	37.4
318.15 K, x1 = 0.2012	1192.4	34.6
318.15 K, x1 = 0.2999	1166.3	32
318.15 K, x1 = 0.4003	1141.9	29.9
318.15 K, x1 = 0.5005	1118.9	28
318.15 K, x1 = 0.6	1097.5	26.7
318.15 K, x1 = 0.7002	1077.5	24.9
318.15 K, x1 = 0.8011	1058.7	23.3
318.15 K, x1 = 0.8998	1040	21.7
318.15 K, x1 = 1	1022.7	20.3
323.15 K, x1 = 0.1001	1215.2	36.7
323.15 K, x1 = 0.2012	1187.6	33.9
323.15 K, x1 = 0.2999	1161.9	31.3
323.15 K, x1 = 0.4003	1137.5	29.2
323.15 K, x1 = 0.5005	1114.6	27.3
323.15 K, x1 = 0.6	1093.3	26
323.15 K, x1 = 0.7002	1073.3	24.2
323.15 K, x1 = 0.8011	1054.7	22.7
323.15 K, x1 = 0.8998	1035.9	21.2
323.15 K, x1 = 1	1018.9	19.8
328.15 K, x1 = 0.1001	1211.1	36.2
328.15 K, x1 = 0.2012	1183.3	33.2
328.15 K, x1 = 0.2999	1157.7	30.6
328.15 K, x1 = 0.4003	1133.2	28.5
328.15 K, x1 = 0.5005	1110.4	26.5
328.15 K, x1 = 0.6	1089.2	25.2
328.15 K, x1 = 0.7002	1069.2	23.5
328.15 K, x1 = 0.8011	1050.6	22.1
328.15 K, x1 = 0.8998	1032	20.5
328.15 K, x1 = 1	1015	19.3
